The target in series [1] is T1, NLRP3 (Homo sapiens, UniProt Q96P20). Briefly: Human whole blood IL1β release assay (LPS + nigericin, AlphaLisa IL-1β). Particulars: NLRP3 inhibitory activity, 1 μg/ml LPS, 10 μM nigericin, IL-1β release, read-out: HWB IC50. Format: cell-based. Further details: Human whole blood in Li-heparin tubes was obtained from healthy donors from a volunteer donor panel; from tissue; host or cells: human whole blood from healthy donors. The essentials:
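Donor human whole blood (Li-heparin) was primed with 1 μg/mL LPS while incubated with compound (8-point half-log, 10 μM top, 0.1% DMSO) for 3 h at 37° C., then stimulated with 10 μM nigericin for 1 h. Supernatant IL-1β measured by AlphaLISA; IC50 from 4-parameter nonlinear fit.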
A general note: Alpha assays give light when donor and acceptor beads are brought close together.

Series [2] has as its target T1, NLRP3. The series is described as follows: THP-1 cells pyroptosis assay (LPS + nigericin, resazurin readout). Format: cell-based. The arrangement: Seed THP-1 cells (25,000 cells/well) containing 1.0 μg/ml LPS in 40 μl of RPMI medium; host or cells: THP-1 cells. Conditions: NLRP3 inhibitory activity, 1.0 μg/ml LPS, 5 μM nigericin. In outline: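 LPS-primed (1 μg/ml) THP-1 cells, 25,000/well in serum-free RPMI, given compound (8-point half-log, 10 μM top; 0.1% DMSO) for 3 h at 37 °C, then nigericin 5 μM for 1 h. Viability by resazurin (100 μM, 1-2 h), Ex 560/Em 590 nm; IC50 from 4-parameter variable-slope fit.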
For orientation: Alamar Blue is a resazurin reagent that responds to reducing activity.

A short description of series [3]: PK protocol, oral administration. Format: in vivo, male Sprague Dawley rats. Particulars: male, Sprague Dawley, rat, plasma, dose (mg/kg); for AUC / CL/F / Cmax / Tmax / half-life: po. The method, then: (§1) Pharmacokinetic parameters were determined in male Sprague Dawley rats (Charles River, UK, 250-350 g; or Vital River Laboratory Animal Technology Co Ltd, Beijing, China, 7-9 weeks old). Animals were individually housed during the study and maintained under a 12 h light/dark cycle. Animals had free access to food and water except that some orally dosed animals were food deprived overnight prior to the study.
(§2) For intravenous administration, compounds were formulated as a solution in water or […] in 2 mL/kg dosing volume and administered via tail vein. For oral administration, compounds were formulated as a solution in water or DMSO:water [10:90] in 5 mL/kg dosing volume and administered orally.
(§3) Serial blood samples (about 120-300 μL) were taken from each animal at each of 8 time-points post dose (0.083, 0.25, 0.5, 1, 2, 4, 8 and 24 h) or at each of 12 time-points post dose (0.03, 0.1, 0.17, 0.25, 0.5, 1, 2, 4, 6, 8, 12 and 24 h) or pre-dose and at each of 9 time-points post dose (0.25, 0.5, 1, 2, 4, 6, 8, 12 and 24 h). Samples were held on ice for no longer than 30 minutes before centrifugation (10,000 rpm (8,385 g) for 3 minutes; or 5,696 rpm (3,0009 for 15 minutes) for plasma generation. Plasma was frozen on dry ice prior to boanalysis. PK parameters were generated from LC-MS/MS data using Dotmatics or Phoenix WinNonlin 6.3 software.

Series [4] in a line: PK protocol, intravenous administration. Conditions: male, Sprague Dawley, rat, plasma, dose (mg/kg); for Vd: read-out: Vdss. In kind it is in vivo, male Sprague Dawley rats. The method, then: as §1, §2, §3

Where a name gives a salt, the structure may show the parent alone.

T1 sequence (Q96P20 whole entry): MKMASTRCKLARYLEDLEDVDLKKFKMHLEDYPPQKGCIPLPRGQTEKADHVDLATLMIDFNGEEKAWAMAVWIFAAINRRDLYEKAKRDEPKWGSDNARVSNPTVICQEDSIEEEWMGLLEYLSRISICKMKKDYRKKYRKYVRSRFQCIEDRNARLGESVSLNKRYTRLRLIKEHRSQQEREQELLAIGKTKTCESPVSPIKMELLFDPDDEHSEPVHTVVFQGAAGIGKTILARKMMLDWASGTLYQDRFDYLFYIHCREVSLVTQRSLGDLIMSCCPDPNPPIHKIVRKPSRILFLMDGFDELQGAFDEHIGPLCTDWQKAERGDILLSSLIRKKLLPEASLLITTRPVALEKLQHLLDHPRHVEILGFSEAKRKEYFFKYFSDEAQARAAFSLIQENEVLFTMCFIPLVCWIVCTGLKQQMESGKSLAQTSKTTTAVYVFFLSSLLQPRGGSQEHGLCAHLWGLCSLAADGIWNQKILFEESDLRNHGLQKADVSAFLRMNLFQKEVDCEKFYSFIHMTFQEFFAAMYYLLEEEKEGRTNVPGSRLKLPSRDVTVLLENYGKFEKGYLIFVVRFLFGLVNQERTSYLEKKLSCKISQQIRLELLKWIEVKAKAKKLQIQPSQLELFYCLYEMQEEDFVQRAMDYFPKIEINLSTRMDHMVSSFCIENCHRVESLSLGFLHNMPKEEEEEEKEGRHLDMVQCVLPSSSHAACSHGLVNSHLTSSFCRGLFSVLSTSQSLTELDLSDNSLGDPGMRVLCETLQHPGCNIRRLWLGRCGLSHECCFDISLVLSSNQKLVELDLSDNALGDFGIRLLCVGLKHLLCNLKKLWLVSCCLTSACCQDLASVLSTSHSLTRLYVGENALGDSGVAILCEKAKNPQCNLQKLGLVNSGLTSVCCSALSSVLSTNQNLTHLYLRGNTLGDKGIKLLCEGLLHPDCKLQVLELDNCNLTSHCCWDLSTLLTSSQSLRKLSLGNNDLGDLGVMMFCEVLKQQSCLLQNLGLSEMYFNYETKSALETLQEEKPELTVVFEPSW

A word on the IC50: it is the concentration at which inhibition is half-maximal. The term AUC denotes the area under the concentration-time curve, a measure of exposure. High values mean more exposure, low ones less exposure. As usually defined, the CL/F is the apparent clearance, not corrected for the fraction that reaches the circulation. For orientation: Cmax means the maximum level reached in the sampled fluid or tissue. What is called Tmax is the time from dosing to the highest level. What is called half-life is the time needed for the level to fall by half in the phase considered. Higher therefore signals slow decline. Take `CC(c1cc(S(=O)(=O)NC(=O)Nc2c3c(cc4c2CCC4)CCC3)nn1C)N(C)C` (single isomer, unassigned; enantiomer 1) [Example 69, 5-(1-(Dimethylamino)ethyl)-N-((1,2,3,5,6,7-hexahydro-s-indacen-4-yl)carbamoyl)-1-methyl-1H-pyrazole-3-sulfonamide, Enantiomer 1]: on NLRP3 [1], the IC50 is less than 400 nM. In addition, the IC50 on NLRP3 [2] is less than 40 nM. Moreover, in series [3], the AUC worked out at 17000 ng·h/mL, the CL/F turned out to be 4.2 mL/min/kg, the Cmax is 7460 ng/mL and the Tmax amounted to 0.38 h. The same molecule had a half-life in series [3] of 1.2 h.

The term clearance denotes the volume of plasma or blood freed of the substance per unit of time. A higher clearance goes with efficient removal. As to `CN(C)Cc1cc(S(=O)(=O)NC(=O)Nc2c3c(cc4c2CCC4)CCC3)nn1C1CC1` [Example 7, 1-Cyclopropyl-5-((dimethylamino)methyl)-N-((1,2,3,5,6,7-hexahydro-s-indacen-4-yl)carbamoyl)-1H-pyrazole-3-sulfonamide], on NLRP3 [1], the IC50 lay in the range of 400 to 800 nM. Also, in series [4], the AUC was found to be 3480 ng·h/mL, the clearance is 4.9 mL/min/kg, the half-life is 1.2 h and the Vd was 0.36 L/kg. On NLRP3 [2], the IC50 was less than 40 nM. Also, in series [3], the bioavailability stood at 204%, the AUC came to 21200 ng·h/mL, the apparent clearance CL/F came to 2.4 mL/min/kg and the Cmax was found to be 6690 ng/mL. Moreover, in series [3], the Tmax is 1 h and the half-life is 2.2 h.

`CNCc1cc(S(=O)(=O)NC(=O)Nc2c3c(cc4c2CCC4)CCC3)nn1C(C)C` [Example 50, N-((1,2,3,5,6,7-Hexahydro-s-indacen-4-yl)carbamoyl)-1-isopropyl-5-((methylamino)methyl)-1H-pyrazole-3-sulfonamide]: at NLRP3 [1], the IC50 lay within 400 to 800 nM. Besides, in series [4], the AUC worked out at 11400 ng·h/mL, the clearance worked out at 1.5 mL/min/kg, the half-life is 3.5 h and the Vd was 0.39 L/kg. Also, the IC50 on NLRP3 [2] was in the range of 40 to 160 nM. Moreover, in series [3], the bioavailability was 84%, the AUC worked out at 19100 ng·h/mL, the CL/F was 1.8 mL/min/kg and the Cmax is 2410 ng/mL. Besides, in series [3], the Tmax was found to be 1.3 h and the half-life is 3.3 h.

As for `CCC(c1cc(S(=O)(=O)NC(=O)Nc2c3c(cc4c2CCC4)CCC3)nn1C(C)C)N(C)C` (stereo not shown) [Example 63, 5-(1-(Dimethylamino)propyl)-N-((1,2,3,5,6,7-hexahydro-s-indacen-4-yl)carbamoyl)-1-isopropyl-1H-pyrazole-3-sulfonamide], on NLRP3 [1], the IC50 was less than 400 nM. In series [4], the AUC was 4010 ng·h/mL, the clearance turned out to be 4.2 mL/min/kg, the half-life is 0.8 h and the Vd amounted to 0.25 L/kg. The IC50 at NLRP3 [2] was less than 40 nM.

With `CC(c1cc(S(=O)(=O)NC(=O)Nc2c3c(cc4c2CCC4)CCC3)nn1C(C)C)N(C)C` (stereo not shown) [Example 73, 5-(1-(Dimethylamino)ethyl)-N-((1,2,3,5,6,7-hexahydro-s-indacen-4-yl)carbamoyl)-1-isopropyl-1H-pyrazole-3-sulfonamide], the IC50 on NLRP3 [1] was less than 400 nM. For the same molecule, in series [4], the AUC came out at 4250 ng·h/mL, the clearance came to 4.3 mL/min/kg, the half-life was 3.5 h and the Vd came out at 0.51 L/kg. Moreover, on NLRP3 [2], the IC50 was less than 40 nM.

In the case of `CC(c1cc(S(=O)(=O)NC(=O)Nc2c3c(cc4c2CCC4)CCC3)nn1C)N1CCC1` (stereo not shown) [Example 76, 5-(1-(Azetidin-1-yl)ethyl)-N-((1,2,3,5,6,7-hexahydro-s-indacen-4-yl)carbamoyl)-1-methyl-1H-pyrazole-3-sulfonamide], at NLRP3 [1], the IC50 is less than 400 nM. Moreover, in series [4], the AUC stood at 4900 ng·h/mL, the clearance was determined as 5.8 mL/min/kg, the half-life was 3.2 h and the Vd was 0.66 L/kg. Moreover, the IC50 at NLRP3 [2] lay in the range of 40 to 160 nM. Also, in series [3], the bioavailability was found to be 45.6%, the AUC is 5650 ng·h/mL, the apparent clearance (CL/F) is 12.3 mL/min/kg and the Cmax was found to be 2340 ng/mL. In addition, in series [3], the Tmax came to 0.5 h and the half-life is 2.9 h.

Regarding `CC(c1cc(S(=O)(=O)NC(=O)Nc2c3c(cc4c2CCC4)CCC3)nn1C)N(C)C` (stereo not shown) [Example 77, 5-(1-(Dimethylamino)ethyl)-N-((1,2,3,5,6,7-hexahydro-s-indacen-4-yl)carbamoyl)-1-methyl-1H-pyrazole-3-sulfonamide], the IC50 at NLRP3 [1] was less than 400 nM. In addition, in series [4], the AUC is 4440 ng·h/mL, the clearance came to 3.8 mL/min/kg, the half-life is 3.5 h and the Vd worked out at 0.38 L/kg. Also, the IC50 at NLRP3 [2] is less than 40 nM.

On to `CCN(C)Cc1cc(S(=O)(=O)NC(=O)Nc2c3c(cc4c2CCC4)CCC3)nn1C` [Example 84, 5-((Ethyl(methyl)amino)methyl)-N-((1,2,3,5,6,7-hexahydro-s-indacen-4-yl)carbamoyl)-1-methyl-1H-pyrazole-3-sulfonamide], for which the IC50 at NLRP3 [1] is 400 to 800 nM. For the same molecule, in series [4], the AUC was found to be 2490 ng·h/mL, the clearance came out at 6.7 mL/min/kg, the half-life is 1 h and the Vd was found to be 0.47 L/kg. The IC50 on NLRP3 [2] was in the range of 40 to 160 nM.

Consider `Cn1nc(S(=O)(=O)NC(=O)Nc2c3c(cc4c2CCC4)CCC3)cc1CN1CCC1` [Example 86, 5-(Azetidin-1-ylmethyl)-N-((1,2,3,5,6,7-hexahydro-s-indacen-4-yl)carbamoyl)-1-methyl-1H-pyrazole-3-sulfonamide, Sodium Salt], for which the IC50 on NLRP3 [1] lay in the range of 800 to 1600 nM. Besides, in series [4], the AUC was 4400 ng·h/mL, the clearance was determined as 3.8 mL/min/kg, the half-life is 3.2 h and the Vd amounted to 0.48 L/kg. Further, the IC50 on NLRP3 [2] was in the range of 160 to 640 nM.

For the molecule `CC(C)c1cc(F)cc(C(C)C)c1NC(=O)NS(=O)(=O)c1cc(CN2CCC2)n(C)n1` [Example 88, 5-(Azetidin-1-ylmethyl)-N-((4-fluoro-2,6-diisopropylphenyl)carbamoyl)-1-methyl-1H-pyrazole-3-sulfonamide, Sodium Salt], at NLRP3 [1], the IC50 is less than 400 nM. In series [4], the AUC was 1500 ng·h/mL, the clearance stood at 11.2 mL/min/kg, the half-life was 4.3 h and the Vd was 1.64 L/kg. Besides, the IC50 on NLRP3 [2] fell in the range of 160 to 640 nM.

As for `CCN(C)Cc1cc(S(=O)(=O)NC(=O)Nc2c(C(C)C)cc(F)cc2C(C)C)nn1C` [Example 89, 5-((Ethyl(methyl)amino)methyl)-N-((4-fluoro-2,6-diisopropylphenyl)carbamoyl)-1-methyl-1H-pyrazole-3-sulfonamide, sodium Salt], at NLRP3 [1], the IC50 is less than 400 nM. In series [4], the AUC is 1020 ng·h/mL, the clearance is 16.3 mL/min/kg, the half-life is 1.4 h and the Vd came to 1.4 L/kg. Besides, the half-inhibitory concentration (IC50) on NLRP3 [2] was 160 to 640 nM.

In the case of `CC(C)N(C)Cc1cc(S(=O)(=O)NC(=O)Nc2c3c(cc4c2CCC4)CCC3)nn1C` [Example 91, N-((1,2,3,5,6,7-Hexahydro-s-indacen-4-yl)carbamoyl)-5-((isopropyl(methyl)amino)methyl)-1-methyl-1H-pyrazole-3-sulfonamide], the IC50 at NLRP3 [1] lay within 400 to 800 nM. In series [4], the AUC amounted to 2620 ng·h/mL, the clearance was found to be 6.9 mL/min/kg, the half-life is 4.3 h and the Vd was determined as 1.03 L/kg. Further, the IC50 on NLRP3 [2] lay in the range of 160 to 640 nM.

Regarding `CC(C)c1cc(F)cc(C(C)C)c1NC(=O)NS(=O)(=O)c1cc(CN(C)C)n(C)n1` [Example 92, 5-((Dimethylamino)methyl)-N-((4-fluoro-2,6-diisopropyl-phenyl)carbamoyl)-1-methyl-1H-pyrazole-3-sulfonamide, Sodium Salt], at NLRP3 [1], the concentration for half-maximal inhibition (IC50) is less than 400 nM. Further, in series [4], the AUC stood at 1280 ng·h/mL, the clearance was found to be 13.1 mL/min/kg, the half-life is 3.2 h and the Vd is 2.19 L/kg. For the same molecule, the IC50 at NLRP3 [2] fell in the range of 160 to 640 nM.

Source of the values: patent US11542255B2, “Sulfonylureas and sulfonylthioureas as NLRP3 inhibitors” (Inflazome Limited, priority 2017, dated 2023).
